pIC50: −log10 of the molar value.
Columns and labels:
[1] = target: T1, C-terminal domain (CTD) of human STING (Homo sapiens, UniProt Q86WV6); test: STING binding FP assay I; parameters: recombinant human STING protein (155-379); conditions: 35 nM STING, 4 nM Probe 1
Method: (§1) The interaction between molecules and the C-terminal domain (CTD) of human STING was evaluated using a competition binding assay. In this assay, recombinant human STING protein (155-379) and a STING binding fluorescent probe were employed. Upon binding of the probe to STING, the rotation of the fluorescent probe is slowed due to the larger molecular size of the protein-bound complex. As a result, emitted light retains its plane of polarization, leading to an increase in fluorescence polarization. Molecules competing for the probe binding site displace the probe, which leads to rapid randomization of the polarization plane of the emitted light and a subsequent decrease in measured fluorescence polarization signal. Change in polarization was measured, allowing a comparative evaluation of the binding affinities of different compounds to the target protein.
(§2) The assay was performed in 96-well plates (ThermoFisher, cat.# 237108) containing 100µl : 10 µL test compound in 10% DMSO and buffer A (150 mM NaCl, 50 mM HEPES pH 7.5, 1 mM DTT) + 90 µL prepared master mix solution of: 4 nM fluorescein-labelled STING ligand (Probe 1; synthesis described above) in buffer A + 0.055% Tween-20 (v/v) and 35 nM STING in buffer A. Post mixing, plates were agitated at 600rpm and incubated for 20 min at room temperature. Subsequent measurements of the fluorescence polarization signal were made on a BioTek Synergy-H1 plate reader, using a polarization filter; Exc: 485/20 nm, Em: […]) with a gain-setting of 75. IC50 values were determined using a standard non-linear regression four-parameter curve fit in Graphpad Prism.

[2] = target: T1, C-terminal domain (CTD) of human STING; test: STING binding FP assay II; parameters: recombinant human STING protein (155-379); conditions: 7 nM STING
Method: as §1, §2
The procedure for STING binding FP assay II is the same as described for STING binding FP assay I, except for a lower STING concentration. In STING binding FP assay II, a concentration of 7 nM STING in buffer A was used.

T1 sequence (Q86WV6 155-379): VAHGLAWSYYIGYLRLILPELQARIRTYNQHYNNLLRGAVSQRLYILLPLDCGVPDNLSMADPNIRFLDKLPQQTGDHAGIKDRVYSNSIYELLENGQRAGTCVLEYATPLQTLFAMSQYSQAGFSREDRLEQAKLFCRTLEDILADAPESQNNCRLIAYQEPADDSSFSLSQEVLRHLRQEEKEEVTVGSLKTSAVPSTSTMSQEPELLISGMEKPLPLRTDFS

| SMILES | pIC50 [1] | pIC50 [2] |
| --- | --- | --- |
| CCn1nc(C)cc1C(=O)N=c1n(C)c2cc(C(N)=O)ccc2n1CCC(CCn1c(=NC(=O)c2cc(C)nn2CC)n(C)c2cc(C(N)=O)ccc21)OCC(=O)NCCOCCOCCOCCNc1cccc2c1C(=O)N(C1CCC(=O)NC1=O)C2=O (stereo not drawn) [Example 1, 1-[3-({N-2-[2-(2-{2-[2-(2,6-Dioxo-3-piperidyl)-1,3-dioxo-4-isoindolinylamino]ethoxy}ethoxy)ethoxy]ethylcarbamoyl}methoxy)-5-{5-carbamoyl-2-[(1-ethyl-3-methyl-5-pyrazolyl)carbonylimino]-3-methyl-2,3-dihydro-1H-1,3-benzimidazol-1-yl}pentyl]-2-[(1-ethyl-3-methyl-5-pyrazolyl)carbonylimino]-3-methyl-2,3-dihydro-1H-1 ,3-benzimidazole-5-carboxamide] | > 7.52 | – |
| CCn1nc(C)cc1C(=O)N=c1n(C)c2cc(C(N)=O)ccc2n1CCC(CCn1c(=NC(=O)c2cc(C)nn2CC)n(C)c2cc(C(N)=O)ccc21)OCC(=O)NCCOCCOCCOCCOCC(=O)N[C@H](C(=O)N1C[C@H](O)C[C@H]1C(=O)NCc1ccc(-c2scnc2C)cc1)C(C)(C)C (stereo partly drawn) [Example 5] | > 7.52 | 8.62 |
| CCn1nc(C)cc1C(=O)N=c1n(C)c2cc(C(N)=O)ccc2n1CCC(CCn1c(=NC(=O)c2cc(C)nn2CC)n(C)c2cc(C(N)=O)ccc21)OCC(=O)NCCOCCOCCOCC(=O)N[C@H](C(=O)N1C[C@H](O)C[C@H]1C(=O)NCc1ccc(-c2scnc2C)cc1)C(C)(C)C (stereo partly drawn) [Example 28] | > 7.52 | – |
| CCn1nc(C)cc1C(=O)N=c1n(C)c2cc(C(N)=O)ccc2n1CCC(CCn1c(=NC(=O)c2cc(C)nn2CC)n(C)c2cc(C(N)=O)ccc21)OCC(=O)NCCOCCOCCOCCOCCNc1cccc2c1C(=O)N(C1CCC(=O)NC1=O)C2=O (stereo not drawn) [Example 29, 1-{3-[(N-2-{2-[2-(2-{2-[2-(2,6-Dioxo-3-piperidyl)-1,3-dioxo-4-isoindolinylamino]ethoxy}ethoxy)ethoxy]ethoxy}ethylcarbamoyl)methoxy]-5-{5-carbamoyl-2-[(1-ethyl-3-methyl-5-pyrazolyl)carbonylimino]-3-methyl-2,3-dihydro-1H-1 ,3-benzimidazol-1-yl}pentyl}-2-[(1-ethyl-3-methyl-5-pyrazolyl)carbonylimino]-3-methyl-2,3-dihydro-1H-1,3-benzimidazole-5-carboxamide] | > 7.52 | 8.74 |
